Data as given in patent publication US20030215840A1, “Methods and compositions for treating cardiovascular disease using 1682, 6169, 6193, 7771, 14395, 29002, 33216, 43726, 69292, 26156, 32427, 2402, 7747, 1720, 9151, 60491, 1371, 7077, 33207, 1419, 18036, 16105, 38650, 14245, 58848, 1870, 25856, 32394, 3484, 345, 9252, 9135, 10532, 18610, 8165, 2448, …” (Millennium Pharmaceuticals, Inc., priority 2002, published 2003).

Key:
29002 mRNA [1] = assay: TaqMan analysis of 29002 mRNA in stimulated endothelial cells; format: cell-based
Experimental: (§1) This example describes the TaqMan™ procedure. […] The TaqMan™ probe includes the oligonucleotide with a fluorescent reporter dye covalently linked to the 5′ end of the probe (such as FAM (6-carboxyfluorescein), TET (6-carboxy-4,7,2′,7′-tetrachlorofluorescein), JOE (6-carboxy-4,5-dichloro-2,7-dimethoxyfluorescein), or VIC) and a quencher dye (TAMRA (6-carboxy-N,N,N′,N′-tetramethylrhodamine) at the 3′ end of the probe.
(§2) RNA was prepared using the trizol method and treated with DNase to remove contaminating genomic DNA. cDNA was synthesized using standard techniques.

32135 mRNA = settings: niacin models
Text: (§3) This example describes the TaqMan™ procedure. The Taqman™ procedure is a quantitative, reverse transcription PCR-based approach for detecting mRNA. The RT-PCR reaction exploits the 5′ nuclease activity of AmpliTaq Gold™ DNA Polymerase to cleave a TaqMan™ probe during PCR. Briefly, cDNA was generated from the samples of interest, e.g., heart, kidney, liver, skeletal muscle, and various vessels, and used as the starting material for PCR amplification. In addition to the 5′ and 3′ gene-specific primers, a gene-specific oligonucleotide probe (complementary to the region being amplified) was included in the reaction (i.e., the Taqman™ probe). […]
(§4) During the PCR reaction, cleavage of the probe separates the reporter dye and the quencher dye, resulting in increased fluorescence of the reporter. Accumulation of PCR products is detected directly by monitoring the increase in fluorescence of the reporter dye. When the probe is intact, the proximity of the reporter dye to the quencher dye results in suppression of the reporter fluorescence. […]

17799 mRNA = settings: niacin marmoset models
Text: as §3, §4

6169 mRNA = assay: TaqMan analysis of 6169 mRNA in an African Green Monkey model of atherosclerosis; format: in vivo
Experimental: as §1, §2

21833 mRNA = assay: TaqMan analysis of 21833 in cultured human monocytes and macrophages; format: cell-based; settings: after stimulation
Experimental: as §1, §2

29002 mRNA [2] = assay: TaqMan analysis of 29002 mRNA in stimulated macrophages; format: cell-based
Experimental: as §1, §2

CC[C@H](C)C(=O)O[C@H]1CCC=C2C=C[C@H](C)[C@H](CC[C@@H]3C[C@@H](O)CC(=O)O3)[C@H]21 [mevastatin, reference compound]
29002 mRNA expression (29002 mRNA [1]): down-regulated

O=C(O)c1cccnc1 [niacin]
32135 mRNA expression (32135 mRNA): repressed | 17799 mRNA expression (17799 mRNA): repressed

n-3 polyunsaturated fatty acid
6169 mRNA expression (6169 mRNA): repressed

B1: interferon gamma: interferon gamma used to stimulate monocytes and macrophages (protein, UniProt P01579 24-161, looked up)
Interferon gamma: QDPYVKEAENLKKYFNAGHSDVADNGTLFLGILKNWKEESDRKIMQSQIVSFYFKLFKNFKDDQSIQKSVETIKEDMNVKFFNSNKKKRDDFEKLTNYSVTDLNVQRKAIHELIQVMAELSPAAKTGKRKRSQMLFRG
21833 expression (21833 mRNA): upregulated

B2: CD40 ligand: CD40 ligand used to stimulate macrophages (protein, UniProt P29965 113-261, looked up)
CD40 ligand, soluble form: MQKGDQNPQIAAHVISEASSKTTSVLQWAEKGYYTMSNNLVTLENGKQLTVKRQGLYYIYAQVTFCSNREASSQAPFIASLCLKSPGRFERILLRAANTHSSAKPCGQQSIHLGGVFELQPGASVFVNVTDPSQVSHGTGFTSFGLLKL
29002 mRNA expression (29002 mRNA [2]): upregulated | 21833 expression (21833 mRNA): upregulated
